Measurements reported in US20260001875A1, “AMINOPYRIMIDINYL DERIVATIVES FOR THE TREATMENT OF PARKINSON'S DISEASE” (UNIVERSITY OF DUNDEE, priority 2022, published 2026).

What was measured:
Details in all cases: Mus musculus
Rab10 pThr73 [1] = assay: Rab10 Thr73 dephosphorylation (immunoblot) in WT MEFs; assay type: cell-based, mouse
Description: (§1) Western blot degradation assays for the LRRK2 protacs were performed with WT and PD-associated LRRK2 [G2019S] mouse embryonic fibroblasts (MEFs). The second-generation PROTACs were tested in parallel with the first generation PROTACs SD75, SD82, and SD100. The compounds were tested at 33 nM or […] concentrations for 4 hours or 24 hours, running two biological replicates per condition and achieving quantifications representative of both replicates. Analysis by quantitative immunoblotting was performed with readouts of the total LRRK2 (antibody recognizes epitope in C-terminus of protein), Rab10 pThr73 (physiological substrate) and LRRK2 pSer935 (biomarker phosphorylation site).
(§2) Primary MEFs were generated as described in a previous study (Wiggin et al., Mol. Cell Biol. 2002 April; 22(8):2871-81.). Briefly, the uterine horn was collected from adult female mice at day E12.5 and transferred to a 10 cm tissue culture dish containing cold PBS. Two forceps were used to tear the yolk sacs to isolate each embryo. Forceps were cleaned thoroughly with 70% ethanol between each embryo isolation. The embryos were culled, and a tissue piece was collected in a PCR tube for genotyping. The red tissue of the embryo, which grows to become the heart and liver, was removed. The remainder of the embryo was minced with a scalpel blade and incubated with 7.5 ml trypsin-EDTA solution for 10 minutes in a 37° C. tissue culture CO2 incubator. The dish was removed from the incubator and checked under a light microscope for single cells. 7.5 ml complete media was added to the trypsinised cells, and the cell suspension was transferred to a 15 ml Falcon tube, centrifuged at 1200 rpm for 5 minutes at room temperature. The trypsin was aspirated, the cell pellet was resuspended in 5 ml fresh complete media, and the cell suspension was plated in a 60 mm tissue culture dish and incubated in a 37° C., 5% CO2 tissue culture incubator. The MEFs at this stage were considered as passage 0 and were passaged and expanded for experimental use once the genotype was confirmed by allelic sequencing and immunoblotting. MEFs were cultured in Dulbecco's modified Eagle medium (DMEM) containing 10% (v/v) fetal bovine serum (FBS), 2 mM L-glutamine, 100 U/ml penicillin, and 100 μg/ml streptomycin supplemented with 1× non-essential amino acids and 1 mM sodium pyruvate.
Culturing and passaging of adherent cell lines were carried out using aseptic technique in CL1 or CL2 (for PBMC isolation) biological safety cabinets. All cells were incubated in a 37° C. incubator with 5% CO2. Cell lines were regularly tested for mycoplasma contamination. For western blot assay, the cells were seeded in 6-well plates. After treating with testing compounds at indicated concentrations and time period, the media was removed and the cells were washed with PBS and lysed in 100 μl ice-cold complete lysis buffer containing 50 mM Tris-HCl pH 7.4, 1 mM EGTA, 10 mM 2-glycerophosphate, 50 mM sodium fluoride, 5 mM sodium pyrophosphate, 270 mM sucrose, supplemented with 1 μg/ml microcystin-LR, 1 mM sodium orthovanadate, complete EDTA-free protease inhibitor cocktail (Roche) and 1% (v/v) Triton X-100. The cells were immediately placed on ice and were scraped and collected into 1.5 ml Eppendorf tubes. Cell lysates were incubated on ice for 10 minutes prior to centrifugation at 15,000 g at 4° C. for 15 minutes. The cell pellet was discarded, and supernatant was collected for analysis by quantitative immunoblotting. For long term storage, the supernatant was flash frozen and stored at −80° C. Protein concentrations of cell lysates were determined using the Bradford assay.
Cell lysates containing a quarter of a volume of 4× NuPAGE LDS sample buffer (NP0007) supplemented with 5% β-mercaptoethanol, were heated at 95° C. for 5 minutes. […]

Rab10 pThr73 [2] = assay: Rab10 Thr73 dephosphorylation (immunoblot) in LRRK2^G2019S MEFs; assay type: cell-based
Description: as §1, with “The” for “Western blot degradation assays for the LRRK2 protacs were performed with WT and PD-associated LRRK2 [G2019S] mouse embryonic fibroblasts (MEFs). The”
as §2
Culturing and passaging of adherent cell lines were carried out using aseptic technique in CL1 or CL2 (for PBMC isolation) biological safety cabinets. All cells were incubated in a 37° C. incubator with 5% CO2. Cell lines were regularly tested for mycoplasma contamination. For western blot assay, the cells were seeded in 6-well plates. […] The cells were immediately placed on ice and were scraped and collected into 1.5 ml Eppendorf tubes. Cell lysates were incubated on ice for 10 minutes prior to centrifugation at 15,000 g at 4° C. for 15 minutes. The cell pellet was discarded, and supernatant was collected for analysis by quantitative immunoblotting. For long term storage, the supernatant was flash frozen and stored at −80° C. Protein concentrations of cell lysates were determined using the Bradford assay.
Cell lysates containing a quarter of a volume of 4× NuPAGE LDS sample buffer (NP0007) supplemented with 5% β-mercaptoethanol, were heated at 95° C. for 5 minutes. 15 to 20 μg of samples were loaded onto pre-cast 4-12% Bis-Tris midi 20W or 26W gels (Thermofisher Scientific®, Cat #WG1402BOX or WG1403BOX) and resolved at 130 V for 2 hours with NuPAGE MOPS SDS running buffer (Thermofisher Scientific® Cat #NP0001-02). Proteins were electrophoretically transferred onto a 0.45 μm nitrocellulose membrane (GE Healthcare, Amersham Protran® Supported 0.45 mm NC) at 90 V for 90 min on ice in transfer buffer (48 mM Tris base and 39 mM glycine supplemented with 20% methanol). The transferred membrane was blocked with 5% (w/v) skim milk powder dissolved in tris-buffered saline with tween (TBS-T) (50 mM Tris base, 150 mM sodium chloride (NaCl), 0.1% (v/v) Tween-20) at room temperature for 1 hour.

Rab10 pThr73 [3] = assay: as above; assay type: cell-based, mouse
[4] = 33 nM/4 h treatment, read-out: pRab10 inhibited in WT MEFs
[5] = 33 nM/24 h treatment, read-out: pRab10 inhibited in WT MEFs
[6] = 1 μM/4 h treatment, read-out: pRab10 inhibited in WT MEFs
[7] = 1 μM/24 h treatment, read-out: pRab10 inhibited in WT MEFs
[8] = 33 nM/4 h treatment, read-out: pRab10 inhibited in LRRK2^G2019S MEFs
[9] = 33 nM/24 h treatment, read-out: pRab10 inhibited in LRRK2^G2019S MEFs
[10] = 1 μM/4 h treatment, read-out: pRab10 inhibited in LRRK2^G2019S MEFs
[11] = 1 μM/24 h treatment, read-out: pRab10 inhibited in LRRK2^G2019S MEFs

| Compound | inhibition at 0.033 µM (Rab10 pThr73 [1]; read-out: pRab10 inhibited in WT MEFs, 33 nM/4 h treatment) | inhibition at 0.033 µM (Rab10 pThr73 [1]; read-out: pRab10 inhibited in WT MEFs, 33 nM/24 h treatment) | inhibition at 1 µM (Rab10 pThr73 [1]; read-out: pRab10 inhibited in WT MEFs, 1 μM/4 h treatment) | inhibition at 1 µM (Rab10 pThr73 [1]; read-out: pRab10 inhibited in WT MEFs, 1 μM/24 h treatment) | inhibition at 0.033 µM (Rab10 pThr73 [2]; read-out: pRab10 inhibited in LRRK2^G2019S MEFs, 33 nM/4 h treatment) | inhibition at 0.033 µM (Rab10 pThr73 [2]; read-out: pRab10 inhibited in LRRK2^G2019S MEFs, 33 nM/24 h treatment) | inhibition at 1 µM (Rab10 pThr73 [3]; read-out: pRab10 inhibited in LRRK2^G2019S MEFs, 1 μM/4 h treatment) | inhibition at 1 µM (Rab10 pThr73 [3]; read-out: pRab10 inhibited in LRRK2^G2019S MEFs, 1 μM/24 h treatment) | inhibition at 0.033 µM (Rab10 pThr73 [1]; [4]) | inhibition at 0.033 µM (Rab10 pThr73 [1]; [5]) | inhibition at 1 µM (Rab10 pThr73 [1]; [6]) | inhibition at 1 µM (Rab10 pThr73 [1]; [7]) | inhibition at 0.033 µM (Rab10 pThr73 [2]; [8]) | inhibition at 0.033 µM (Rab10 pThr73 [2]; [9]) | inhibition at 1 µM (Rab10 pThr73 [3]; [10]) | inhibition at 1 µM (Rab10 pThr73 [3]; [11]) |
| --- | --- | --- | --- | --- | --- | --- | --- | --- | --- | --- | --- | --- | --- | --- | --- | --- |
| CNc1nc(Nc2ccc(C(=O)N3CCC4(CCN(CCCSC(C)(C)[C@H](NC(=O)C5(F)CC5)C(=O)N5C[C@H](O)C[C@H]5C(=O)NCc5ccc(-c6scnc6C)cc5)CC4)CC3)cc2OC)ncc1Cl [XL02067B, (2S,4R)-1-((R)-3-((3-(9-(4-((5-chloro-4-(methylamino)pyrimidin-2-yl)amino)-3-methoxybenzoyl)-3,9-diazaspiro[5.5]undecan-3-yl)propyl)thio)-2-(1-fluorocyclopropane-1-carboxamido)-3-methylbutanoyl)-4-hydroxy-N-(4-(4-methylthiazol-5-yl)benzyl)pyrrolidine-2-carboxamide] | 0 to 70% | 0 to 80% | 80 to 100% | 80 to 100% | 0 to 90% | 30 to 90% | 10 to 100% | 80 to 100% | – | – | – | – | – | – | – | – |
| CNc1nc(Nc2ccc(C(=O)N3CCN(CCCSC(C)(C)[C@H](NC(=O)C4(F)CC4)C(=O)N4C[C@H](O)C[C@H]4C(=O)N[C@@H](C)c4ccc(-c5scnc5C)cc4)CC3)cc2OC)ncc1Cl [XL01118, (2S,4R)-1-((R)-3-((3-(4-(4-((5-chloro-4-(methylamino)pyrimidin-2-yl)amino)-3-methoxybenzoyl)piperazin-1-yl)propyl)thio)-2-(1-fluorocyclopropane-1-carboxamido)-3-methylbutanoyl)-4-hydroxy-N—((S)-1-(4-(4-methylthiazol-5-yl)phenyl)ethyl)pyrrolidine-2-carboxamide] | – | – | – | – | – | – | – | – | 0 to 40% | 0 to 60% | 10 to 95% | 30 to 100% | 0 to 70% | 0 to 90% | 20 to 100% | 10 to 100% |
| CNc1nc(Nc2ccc(C(=O)N3CCN(Cc4ccc(CSC(C)(C)[C@H](NC(=O)C5(F)CC5)C(=O)N5C[C@H](O)C[C@H]5C(=O)NCc5ccc(-c6scnc6C)c(F)c5)cc4)CC3)cc2OC)ncc1Cl [XL01121, (2S,4R)-1-((R)-3-((4-((4-(4-((5-chloro-4-(methylamino)pyrimidin-2-yl)amino)-3-methoxybenzoyl)piperazin-1-yl)methyl)benzyl)thio)-2-(1-fluorocyclopropane-1-carboxamido)-3-methylbutanoyl)-N-(3-fluoro-4-(4-methylthiazol-5-yl)benzyl)-4-hydroxypyrrolidine-2-carboxamide] | – | – | – | – | – | – | – | – | 0 to 40% | 0 to 60% | 10 to 95% | 30 to 100% | 0 to 70% | 0 to 90% | 20 to 100% | 10 to 100% |
| CNc1nc(Nc2ccc(C(=O)N3CCN(CC4CC[C@H](CSC(C)(C)C(NC(=O)C5(F)CC5)C(=O)N5C[C@H](O)C[C@H]5C(=O)NCc5ccc(-c6scnc6C)cc5)C4)CC3)cc2OC)ncc1Cl (stereo in doubt) [XL02093, (2S,4R)-1-((S)-3-((((1S,3S)-3-((4-(4-((5-chloro-4-(methylamino)pyrimidin-2-yl)amino)-3-methoxybenzoyl)piperazin-1-yl)methyl)cyclopentyl)methyl)thio)-2-(1-fluorocyclopropane-1-carboxamido)-3-methylbutanoyl)-4-hydroxy-N-(4-(4-methylthiazol-5-yl)benzyl)pyrrolidine-2-carboxamide] | – | – | – | – | – | – | – | – | 20 to 40% | – | 75 to 90% | – | 20 to 50% | – | 80 to 100% | – |
| CNc1nc(Nc2ccc(C(=O)N3CCN(C[C@H]4CC[C@@H](CSC(C)(C)[C@H](NC(=O)C5(F)CC5)C(=O)N5C[C@H](O)CC5C(=O)NCc5ccc(-c6scnc6C)cc5F)CC4)CC3)cc2OC)ncc1Cl (stereo partly drawn) [XL02058, (2S,4R)-1-((R)-3-((((1s,4S)-4-((4-(4-((5-chloro-4-(methylamino)pyrimidin-2-yl)amino)-3-methoxybenzoyl)piperazin-1-yl)methyl)cyclohexyl)methyl)thio)-2-(1-fluorocyclopropane-1-carboxamido)-3-methylbutanoyl)-N-(2-fluoro-4-(4-methylthiazol-5-yl)benzyl)-4-hydroxypyrrolidine-2-carboxamide] | – | – | – | – | – | – | – | – | 0 to 70% | 0 to 80% | 80 to 100% | 80 to 100% | 0 to 90% | 30 to 90% | 10 to 100% | 80 to 100% |
